We go through 5 compounds from DBAASP.

≈ marks a conversion by molar mass, not a printed value.

The MIC is the lowest concentration found to suppress growth. The low end stands for greater potency, the high end for weaker potency.

Among the test systems are Klebsiella pneumoniae; Acinetobacter baumannii; Escherichia coli UB1005; Escherichia coli; Escherichia coli K99; Escherichia coli K88; Pseudomonas aeruginosa; Candida albicans.
Test in all cases: ≥ marks a high value that may be exact or a test limit, other limits are often not marked, values filed in µg/mL are converted to µM
Assay [1] concerns Salmonella enterica subsp. enterica serovar Typhimurium C77-31.
Assay [2] deals with Pseudomonas aeruginosa CICC 21630.
Assay [3] concerns Pseudomonas aeruginosa PAO1.
The test system of assay [4] is Pseudomonas aeruginosa CICC 21625.
For assay [5], the system named is Escherichia coli ATCC 25922.
Assay [6] deals with Salmonella enterica subsp. enterica serovar Pullorum C79-13.
The subject of assay [7] is Salmonella enterica subsp. enterica serovar Typhimurium ATCC 14028.
Assay [8] deals with Pseudomonas aeruginosa ATCC 27853.
Assay [9] relates to Candida parapsilosis CGMCC 2.3989.
Assay [10] deals with Candida albicans CGMCC 2.2086.
In assay [11] the test system is Candida tropicalis CGMCC 2.1975.

`CC[C@H](C)[C@H](N)C(=O)N[C@@H](CCCCN)C(=O)N1CCC[C@H]1C(=O)N[C@H](C(=O)N[C@H](C(=O)N[C@@H](CCCCN)C(=O)N1CCC[C@H]1C(=O)N[C@H](C(=O)N[C@H](C(=O)N[C@@H](CCCCN)C(=O)N1CCC[C@H]1C(=O)N[C@H](C(=O)N[C@H](C(=O)N[C@@H](CCCCN)C(=O)N1CCC[C@H]1C(=O)N[C@H](C(=O)N[C@H](C(=O)N[C@@H](CCCCN)C(=O)N1CCC[C@H]1C(=O)N[C@H](C(=O)N[C@H](C(=O)N[C@@H](CCCCN)C(=O)N1CCC[C@H]1C(=O)N[C@H](C(N)=O)[C@@H](C)CC)[C@@H](C)CC)[C@@H](C)CC)[C@@H](C)CC)[C@@H](C)CC)[C@@H](C)CC)[C@@H](C)CC)[C@@H](C)CC)[C@@H](C)CC)[C@@H](C)CC)[C@@H](C)CC` [IKPIIKPIIKPIIKPIIKPIIKPI]: the minimum inhibitory concentration (MIC) in [1] was no less than 64 µM; in [2], no less than 64 µM; against Klebsiella pneumoniae, greater than 64 µM; in assay [3], greater than 64 µM; in assay [4], no less than 64 µM; in the assay on Acinetobacter baumannii it was 16 µM (≈ 43.6 µg/mL). Moreover, the MIC in assay [5] was 16 µM (≈ 43.6 µg/mL); against Escherichia coli UB1005, 16 µM (≈ 43.6 µg/mL); against Escherichia coli, 64 µM (≈ 175 µg/mL); in assay [6], no less than 64 µM; in the assay on Escherichia coli K99, 8 µM (≈ 21.8 µg/mL); in [7], 64 µM (≈ 175 µg/mL). In addition, the MIC is greater than 64 µM in assay [8], 4 µM (≈ 10.9 µg/mL) against Escherichia coli K88 and greater than 64 µM in the assay on Pseudomonas aeruginosa.
Consider `CC[C@H](C)[C@H](NC(=O)CNC(=O)[C@H](CCCCN)NC(=O)[C@@H](NC(=O)[C@H](CC(C)C)NC(=O)[C@H](CC(C)C)NC(=O)[C@@H](NC(=O)[C@H](CCCCN)NC(=O)CNC(=O)[C@@H](NC(=O)[C@@H](N)CCCCN)[C@@H](C)CC)C(C)C)C(C)C)C(=O)N[C@@H](CCCCN)C(N)=O` [KIGKVLLVKGIK], for which the MIC is no less than 64 µM in assay [9], greater than 64 µM against Candida albicans, no less than 64 µM in assay [10] and no less than 64 µM in assay [11].
`CC[C@H](C)[C@H](NC(=O)[C@@H](N)CCCCN)C(=O)NCC(=O)N[C@@H](CCCCN)C(=O)N[C@H](C(=O)N[C@@H](CC(C)C)C(N)=O)C(C)C` [KIGKVL]: the MIC in [9] was no less than 64 µM; in the assay on Candida albicans, greater than 64 µM; in assay [10], no less than 64 µM; in assay [11], no less than 64 µM.
As for `CC(C)C[C@H](NC(=O)[C@@H]1CCCN1C(=O)[C@H](CCCN=C(N)N)NC(=O)[C@H](CC(C)C)NC(=O)[C@H](CC(C)C)NC(=O)[C@@H]1CCCN1C(=O)[C@H](CCCN=C(N)N)NC(=O)[C@H](CC(C)C)NC(=O)[C@H](CC(C)C)NC(=O)[C@@H]1CCCN1C(=O)[C@H](CCCN=C(N)N)NC(=O)[C@H](CC(C)C)NC(=O)[C@H](CC(C)C)NC(=O)[C@@H]1CCCN1C(=O)[C@H](CCCN=C(N)N)NC(=O)[C@H](CC(C)C)NC(=O)[C@H](CC(C)C)NC(=O)[C@@H]1CCCN1C(=O)[C@H](CCCN=C(N)N)NC(=O)[C@H](CC(C)C)NC(=O)[C@H](CC(C)C)NC(=O)[C@@H]1CCCN1C(=O)[C@H](CCCN=C(N)N)NC(=O)[C@H](CC(C)C)NC(=O)[C@H](CC(C)C)NC(=O)[C@@H]1CCCN1C(=O)[C@H](CCCN=C(N)N)NC(=O)[C@@H](N)CC(C)C)C(N)=O` [LRPLLRPLLRPLLRPLLRPLLRPLLRPL], the MIC in assay [1] worked out at 2 µM (≈ 6.75 µg/mL); in assay [2] it was 2 µM (≈ 6.75 µg/mL); against Klebsiella pneumoniae, 2 µM (≈ 6.75 µg/mL); in assay [3], 1 µM (≈ 3.37 µg/mL); in assay [4], 8 µM (≈ 27 µg/mL); in the assay on Acinetobacter baumannii, 1 µM (≈ 3.37 µg/mL). For the same compound, the MIC in assay [5] came out at 1 µM (≈ 3.37 µg/mL); with Escherichia coli UB1005, 2 µM (≈ 6.75 µg/mL); against Escherichia coli it was 1 µM (≈ 3.37 µg/mL); in assay [6], 1 µM (≈ 3.37 µg/mL); in the assay with Escherichia coli K99 it was 1 µM (≈ 3.37 µg/mL); in assay [7] it was 1 µM (≈ 3.37 µg/mL). Moreover, the MIC in assay [8] stood at 1 µM (≈ 3.37 µg/mL); in the assay with Escherichia coli K88, 1 µM (≈ 3.37 µg/mL); in the assay with Pseudomonas aeruginosa it was 2.83 µM (≈ 9.54 µg/mL).
As for `CC(C)[C@H](N)C(=O)N[C@@H](CCCN=C(N)N)C(=O)N1CCC[C@H]1C(=O)N[C@H](C(=O)N[C@H](C(=O)N[C@@H](CCCN=C(N)N)C(=O)N1CCC[C@H]1C(=O)N[C@H](C(=O)N[C@H](C(=O)N[C@@H](CCCN=C(N)N)C(=O)N1CCC[C@H]1C(=O)N[C@H](C(=O)N[C@H](C(=O)N[C@@H](CCCN=C(N)N)C(=O)N1CCC[C@H]1C(=O)N[C@H](C(=O)N[C@H](C(=O)N[C@@H](CCCN=C(N)N)C(=O)N1CCC[C@H]1C(=O)N[C@H](C(=O)N[C@H](C(=O)N[C@@H](CCCN=C(N)N)C(=O)N1CCC[C@H]1C(=O)N[C@H](C(=O)N[C@H](C(=O)N[C@@H](CCCN=C(N)N)C(=O)N1CCC[C@H]1C(=O)N[C@H](C(N)=O)C(C)C)C(C)C)C(C)C)C(C)C)C(C)C)C(C)C)C(C)C)C(C)C)C(C)C)C(C)C)C(C)C)C(C)C)C(C)C` [VRPVVRPVVRPVVRPVVRPVVRPVVRPV], the MIC is 16 µM (≈ 50.8 µg/mL) in [1]; no less than 64 µM in assay [2]; 32 µM (≈ 102 µg/mL) with Klebsiella pneumoniae; greater than 64 µM in [3]; no less than 64 µM in assay [4]; 4 µM (≈ 12.7 µg/mL) in the assay on Acinetobacter baumannii. In addition, the MIC amounted to 8 µM (≈ 25.4 µg/mL) in assay [5]; 8 µM (≈ 25.4 µg/mL) against Escherichia coli UB1005; 8 µM (≈ 25.4 µg/mL) with Escherichia coli; 4 µM (≈ 12.7 µg/mL) in assay [6]; 16 µM (≈ 50.8 µg/mL) with Escherichia coli K99; 8 µM (≈ 25.4 µg/mL) in assay [7]. Also, the figures for the minimum inhibitory concentration (MIC) (in assay [8]; in the assay with Escherichia coli K88; against Pseudomonas aeruginosa) were greater than 64 µM, 8 µM (≈ 25.4 µg/mL) and greater than 64 µM, respectively.
